Converted amounts (≈) assume the structure as drawn. The source made the active and inactive calls. The rule behind the calls is not given here.
How the values were obtained:
[1] = molecular target: T1, Cannabinoid receptor 1 (Homo sapiens, UniProt P21554); format: functional, cell-based, CHO-K1
Description: Antagonist activity at human CB1 receptor expressed in CHO-K1 cells assessed as inhibition of CP-55940-induced GTPgammaS binding

[2] = molecular target: T1, Cannabinoid receptor 1; experiment: Inverse agonist activity at human CB1 receptor expressed in CHO-K1 cells by GTPgammaS binding assay; format: functional, cell-based
[3] = Solubility of the compound; format: physicochemical
[4] = Lipophilicity, log D by chromatography; format: physicochemical
[5] = molecular target: T1, Cannabinoid receptor 1; experiment: Displacement of [3H]CP-55940 from human CB1 receptor expressed in CHO-K1 cells; format: cell-based
[6] = Selectivity for human CB1 receptor over CB2 receptor by GTPgammaS binding assay
[7] = Ratio of drug level in plasma to brain in po dosed diet-induced obese mouse after 6 hrs; format: ADME, organism-based; settings: in vivo
[8] = system: Mus musculus; experiment: Reduction in WIN-55212-induced hypothermia in mouse at 10 mg/kg po pretreated 40 mins prior to WIN-55212 challenge measured after 1 hr; format: functional, organism-based; set-up: dose 10 mg/kg
[9] = Oral bioavailability in rat; format: ADME, organism-based; settings: in vivo
[10] = Oral bioavailability in mouse; format: ADME, organism-based; settings: in vivo
[11] = system: Mus musculus; experiment: Reduction in body weight in diet-induced obese mouse at 10 mg/kg, po; format: functional; set-up: scale not given: the % may be the effect or the level left
[12] = Ratio of drug level in plasma to brain in mouse at 10 mg/kg, po after 6 hrs; format: ADME, organism-based; set-up: dose 10 mg/kg, route oral; settings: in vivo
[13] = system: Mus musculus; experiment: Reduction in body weight in diet-induced obese mouse at 3 mg/kg, po; format: functional; set-up: scale not given: the % may be the effect or the level left
[14] = molecular target: T1, Cannabinoid receptor 1; experiment: biochemical; format: cell-based, COS-7
Description: Displacement of [3H]CP-55940 from human CB1 receptor expressed in COS7 cells

[15] = Ratio of drug level in plasma to brain in mouse at 10 mg/kg, po after 3 hrs; format: ADME, organism-based; set-up: dose 10 mg/kg, route oral; settings: in vivo
[16] = Stability in rat microsomes assessed as compound remaining after 30 mins; format: ADME, Microsome; settings: read-out: Stability
[17] = Ratio of drug level in plasma to brain in rat at 5 mg/kg, po after 6 hrs; format: ADME, organism-based; set-up: dose 5 mg/kg, route oral; settings: in vivo
[18] = Stability in rat microsomes after 30 mins; format: ADME, Microsome; settings: 0.5 h
[19] = Stability in mouse microsomes after 30 mins; format: ADME, Microsome; settings: 0.5 h
[20] = Bioavailability in ip dosed rat; format: ADME, organism-based; settings: in vivo
[21] = Ratio of drug level in plasma to brain in rat at 10 mg/kg, ip after 6 hrs; format: ADME, organism-based; set-up: dose 10 mg/kg, route intraperitoneal; settings: in vivo
[22] = system: Mus musculus; experiment: Reduction in WIN-55212-induced hypothermia in mouse at 1 mg/kg po pretreated 40 mins prior to WIN-55212 challenge measured after 1 hr; format: functional, organism-based; set-up: dose 1 mg/kg

T1 sequence (P21554 whole entry): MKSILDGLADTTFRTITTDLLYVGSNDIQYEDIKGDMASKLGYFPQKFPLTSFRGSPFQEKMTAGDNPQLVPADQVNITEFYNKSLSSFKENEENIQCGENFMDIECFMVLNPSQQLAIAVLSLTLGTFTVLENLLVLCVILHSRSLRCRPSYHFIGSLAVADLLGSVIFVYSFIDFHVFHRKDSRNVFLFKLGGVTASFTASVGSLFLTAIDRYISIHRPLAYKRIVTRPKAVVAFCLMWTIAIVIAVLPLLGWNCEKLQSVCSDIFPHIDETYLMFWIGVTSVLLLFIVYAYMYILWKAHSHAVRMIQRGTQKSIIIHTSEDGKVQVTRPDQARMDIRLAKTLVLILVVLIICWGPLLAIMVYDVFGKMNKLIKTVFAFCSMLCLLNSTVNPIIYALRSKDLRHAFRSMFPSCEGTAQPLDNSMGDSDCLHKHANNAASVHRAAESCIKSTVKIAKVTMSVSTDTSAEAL

Row | SMILES | IC50 [1] [nM] | IC50 [2] [nM] | solubility ([3]; read-out: solubility) [µM] | chromatographic logD [4] | IC50 [5] [nM] | other results
1 | N#CC1(c2ccccc2)CCN(C(=O)c2nn(-c3ccccc3Cl)c(-c3ccc(Cl)cc3)c2CC(N)=O)CC1 | 0.23 | 0.11 | 9 (≈ 5.03 µg/mL) | 3.4 | 0.78 | 
2 | N=C(Cc1c(C(=O)NN2CCOCC2)nn(-c2ccccc2Cl)c1-c1ccc(Cl)cc1)NO | 51 |  |  |  |  | 
3 | NC(=O)Cc1c(C(=O)N2CCC(C(=O)O)(c3ccccn3)CC2)nn(-c2ccccc2Cl)c1-c1ccc(Cl)cc1 | 16 | 10 | 425 (≈ 246 µg/mL) | 1.5 | 23 | 
4 | NC(=O)Cc1c(C(=O)N2CCC(O)(c3ccc(F)cc3)CC2)nn(-c2ccccc2Cl)c1-c1ccc(Cl)cc1 | 0.19 | 0.1 | 75 (≈ 42.6 µg/mL) | 2.8 | 2.6 | Selectivity ratio [6]: 1000; Ratio [7]: 13; Activity [8]: inactive; bioavailability [9]: 70%; bioavailability [10]: 100%; Activity [11]: 15.1%; Ratio [12]: 10.2; Activity [13]: 5.6%
5 | NC(=O)Cc1c(C(=O)N2CCC(O)(c3ccccn3)CC2)nn(-c2ccccc2Cl)c1-c1ccc(Cl)cc1 | 3.6 | 2 | 400 (≈ 220 µg/mL) | 2.3 | 1.9 | Selectivity ratio [6]: 1000; Ratio [12]: 10.2
6 | N=C(Cc1c(C(=O)Nc2ccc(F)cc2)nn(-c2ccccc2Cl)c1-c1ccc(Cl)cc1)NO | 1.1 |  |  |  |  | 
7 | NC(=O)Cc1c(C(=O)N2CCC(c3ncccn3)CC2)nn(-c2ccccc2Cl)c1-c1ccc(Cl)cc1 | 0.71 | 0.3 | 1.1 (≈ 0.589 µg/mL) | 2.6 | 1.4 | 
8 | N#CN1CCC(CNC(=O)c2nn(-c3ccccc3Cl)c(-c3ccc(Cl)cc3)c2CC(N)=O)CC1 | 0.66 | 0.49 | 16 (≈ 8.18 µg/mL) | 2.9 |  | IC50 [14]: 0.34 nM
9 | N=C(Cc1c(C(=O)NN2CCCCC2)nn(-c2ccccc2Cl)c1-c1ccc(Cl)cc1)NO | 1.8 | 1.3 |  |  |  | Ratio [15]: 1.2
10 | NC(=O)Cc1c(C(=O)N2CCC(c3ccccc3F)CC2)nn(-c2ccccc2Cl)c1-c1ccc(Cl)cc1 | 0.51 |  |  |  |  | 
11 | Cc1ccncc1NC(=O)c1nn(-c2ccccc2Cl)c(-c2ccc(Cl)cc2)c1CC(N)=O | 3 | 1.7 | 200 (≈ 96.1 µg/mL) | 2.4 | 0.55 | remaining at 0.5 h [16]: 63%; Ratio [17]: 1.2; bioavailability [9]: 39%
12 | N#Cc1ccc(N2CCN(C(=O)c3nn(-c4ccccc4Cl)c(-c4ccc(Cl)cc4)c3CC(N)=O)CC2)nc1 | 1.2 | 1.4 |  | 2.8 | 4.6 | 
13 | N#CCc1c(C(=O)N2CCC(c3ncccn3)CC2)nn(-c2ccccc2Cl)c1-c1ccc(Cl)cc1 | 3.8 |  |  |  |  | 
14 | NC(=O)Cc1c(C(=O)NN2CCOCC2)nn(-c2ccccc2Cl)c1-c1ccc(Cl)cc1 | 7 | 1.7 |  | 1.8 | 7.9 | 
15 | N=C(N)Cc1c(C(=O)NCc2ccc(F)cc2)nn(-c2ccccc2Cl)c1-c1ccc(Cl)cc1 | 1.2 | 0.79 |  |  |  | 
16 | N=C(N)Cc1c(C(=O)NN2CCOCC2)nn(-c2ccccc2Cl)c1-c1ccc(Cl)cc1 | 26 |  |  |  |  | 
17 | NC(=O)Cc1c(C(=O)N2CCC(O)(c3ccccc3)CC2)nn(-c2ccccc2Cl)c1-c1ccc(Cl)cc1 | 0.26 | 0.11 | 105 (≈ 57.7 µg/mL) | 2.7 |  | IC50 [14]: 2.9 nM
18 | N=C(N)Cc1c(C(=O)NN2CCCCC2)nn(-c2ccccc2Cl)c1-c1ccc(Cl)cc1 | 0.93 | 0.4 |  |  |  | 
19 | NC(=O)Cc1c(C(=O)N2CCC(C(=O)O)(c3ccc(F)cn3)CC2)nn(-c2ccccc2Cl)c1-c1ccc(Cl)cc1 | 30 |  | 500 (≈ 298 µg/mL) | 1.6 |  | bioavailability [10]: 4%
20 | NC(=O)Cc1c(C(=O)NN2CCCCC2)nn(-c2ccccc2Cl)c1-c1ccc(Cl)cc1 | 1.4 | 0.82 | 4.5 (≈ 2.13 µg/mL) | 2.6 | 1.8 | remaining at 0.5 h [16]: 72%; bioavailability [9]: 2%
21 | N=C(N)Cc1c(C(=O)N2CCC(c3ncccn3)CC2)nn(-c2ccccc2Cl)c1-c1ccc(Cl)cc1 | 9.7 | 0.59 |  |  |  | 
22 | N#CCc1c(C(=O)NN2CCCCC2)nn(-c2ccccc2Cl)c1-c1ccc(Cl)cc1 |  | 1.8 |  |  |  | 
23 | N=C(N)Cc1c(C(=O)N2CCC(O)(c3ccc(F)cc3)CC2)nn(-c2ccccc2Cl)c1-c1ccc(Cl)cc1 | 1.9 |  |  |  |  | 
24 | N=C(N)Cc1c(C(=O)Nc2ccc(F)cc2)nn(-c2ccccc2Cl)c1-c1ccc(Cl)cc1 | 1.5 |  |  |  |  | Stability [18]: Stable; Stability [19]: Stable; bioavailability [20]: 19%; Ratio [21]: 3.2
25 | N=C(Cc1c(C(=O)N2CCC(c3ccccc3F)CC2)nn(-c2ccccc2Cl)c1-c1ccc(Cl)cc1)NO | 0.54 |  |  |  |  | 
26 | NC(=O)Cc1c(C(=O)N2CCC(O)(c3ccc(F)cn3)CC2)nn(-c2ccccc2Cl)c1-c1ccc(Cl)cc1 |  | 2.1 | 290 (≈ 165 µg/mL) | 2.5 |  | IC50 [14]: 5.5 nM
27 | NC(=O)Cc1c(C(=O)NC2CCN(C(=O)C3CC3)CC2)nn(-c2ccccc2Cl)c1-c1ccc(Cl)cc1 |  | 1.2 | 80 (≈ 43.2 µg/mL) | 2.3 | 3.7 | Ratio [12]: 6.1
28 | N=C(Cc1c(C(=O)N2CCC(c3ncccn3)CC2)nn(-c2ccccc2Cl)c1-c1ccc(Cl)cc1)NO | 21 |  |  |  |  | 
29 | Cc1c(C(=O)NN2CCCCC2)nn(-c2ccc(Cl)cc2Cl)c1-c1ccc(Cl)cc1 [RIMONABANT] |  |  |  |  |  | Activity [22]: Active; solubility [3]: 10 µM (≈ 4.64 µg/mL); Activity [11]: 14.5
